The source of these data is patent US7135572B2 (CJ Corp, priority 2001, dated 2006).

One test concerns the target T1, cyclooxygenase-2 (Mus musculus, UniProt Q05769).
T1 construct: endogenous in cells; host or cells: Raw 264.7 (Korean cell line bank), aspirin-pretreated, induced with interferon gamma and LPS
T1 sequence (Q05769 18-604): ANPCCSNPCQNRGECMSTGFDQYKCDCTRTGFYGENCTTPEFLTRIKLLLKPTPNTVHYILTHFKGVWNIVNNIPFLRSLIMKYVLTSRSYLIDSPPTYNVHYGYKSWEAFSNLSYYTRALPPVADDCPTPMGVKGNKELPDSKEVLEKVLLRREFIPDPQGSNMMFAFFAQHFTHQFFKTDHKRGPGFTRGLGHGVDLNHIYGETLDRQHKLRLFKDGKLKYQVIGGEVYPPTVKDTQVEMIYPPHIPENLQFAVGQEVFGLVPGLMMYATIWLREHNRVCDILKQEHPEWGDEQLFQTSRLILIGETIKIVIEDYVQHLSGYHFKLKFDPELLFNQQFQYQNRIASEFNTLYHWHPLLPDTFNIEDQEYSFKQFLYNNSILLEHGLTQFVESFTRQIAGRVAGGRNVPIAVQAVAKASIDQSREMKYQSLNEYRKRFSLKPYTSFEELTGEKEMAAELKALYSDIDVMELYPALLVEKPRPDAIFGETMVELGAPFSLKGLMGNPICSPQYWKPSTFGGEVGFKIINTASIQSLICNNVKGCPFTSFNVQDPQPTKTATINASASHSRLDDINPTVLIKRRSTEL
Kind of test: Inhibition of cyclooxygenase-2 in Raw 264.7 cells treated with interferon γ and LPS (PGE2 EIA). Format: cell-based. The settings on record: for Inhibitory effects of cyclooxygenase (COX): COX-2: Raw 264.7 cells; for selectivity of cyclooxygenase-2 compared with the comparative substance (in words): COX-2 versus COX-1. As to the method: (§1) In order to investigate pharmacologically the selective inhibition activity against cyclooxygenase-2 enzyme, the inhibitive effects against cyclooxygenase-1 and cyclooxygenase-2 were measured by two methods as follows.
And then, each samples were replaced with new media and cultured for 30 minutes. In addition, the samples was treated with 100 units/ml of interferon Υ and 100 ng/ml of lipopolysaccharide(LPS), and cultured for 18 hours. Then, the media was transferred to other tubes and the PGE 2 was quantitated by using EIA kit from Cayman Chemicals.

The next test concerns the target T2, cyclooxygenase-1 (Homo sapiens, UniProt P23219).
T2 construct: The cultured U-937 (humane lymphoma cell, obtained from Korean cell line bank) was centrifuged to collect the pellet; endogenous in cells; host or cells: U-937 (human lymphoma cell line, Korean cell line bank)
The experiment in a line: Inhibition of cyclooxygenase-1 in U-937 cells (PGE2 quantitation). Type of test: cell-based. To be noted: U-937 cells. As for the experimental part:
as §1
Then, the pellet was diluted with 1×HBSS(Hank's balanced salt solutin) at the concentration of 1×10^6 cells/ml, and 1 ml of them was transferred into each well of 12-well plates, and then dissolved with DMSO. 5μl of the diluted sample solution, and 5μl of DMSO vehicle were added therein and mixed, and the mixture was cultured at 37° C. in Co2 incubator for 15 minutes. Arachidonic acid as a substrate was dissolved in ethanol to prepare a stock solution with a concentration of 10 mM, followed by diluting with 1×HBSS to prepare the solution of 1 mM. 10 μl of 1 mM Arachidonic acid solution was added to each of the treated wells, and the mixture was cultured at 37° C. in CO2 incubator for 30 minutes. The cell solution of each well was collected in the centrifuge tube and was centrifuged at 4° C. for 5 minutes at 10,000 rpm. As PGE2 existed in the supernatant separated from collected cell, the concentration of PGE2 was quantitated by using monoclonal kit from Cayman Chemicals, and the concentration of samples and vehicle were compared to estimate the inhibition ratio (%) of each compound against cyclooxygenase-1. Ultimately, the inhibition effect against the cyclooxygenase-1 enzyme was obtained from the result.

T2 sequence (P23219 24-599): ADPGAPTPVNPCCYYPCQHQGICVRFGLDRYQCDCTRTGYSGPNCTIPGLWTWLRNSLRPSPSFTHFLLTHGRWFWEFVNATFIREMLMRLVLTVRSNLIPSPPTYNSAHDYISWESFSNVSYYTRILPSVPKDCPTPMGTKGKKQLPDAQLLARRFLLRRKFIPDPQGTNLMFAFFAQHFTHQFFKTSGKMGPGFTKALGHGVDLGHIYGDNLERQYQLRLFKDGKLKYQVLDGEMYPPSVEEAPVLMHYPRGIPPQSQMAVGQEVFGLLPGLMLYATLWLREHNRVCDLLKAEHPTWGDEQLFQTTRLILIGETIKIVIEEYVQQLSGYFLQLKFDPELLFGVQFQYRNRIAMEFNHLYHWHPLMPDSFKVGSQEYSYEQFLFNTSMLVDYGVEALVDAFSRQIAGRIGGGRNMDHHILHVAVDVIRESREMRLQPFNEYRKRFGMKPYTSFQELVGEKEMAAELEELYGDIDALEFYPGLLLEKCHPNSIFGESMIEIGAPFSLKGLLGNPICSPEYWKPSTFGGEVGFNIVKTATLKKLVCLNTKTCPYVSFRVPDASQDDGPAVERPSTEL

Turning to `Cc1nc(-c2ccccc2)n(-c2ccc(S(N)(=O)=O)cc2)n1` [Example 1, 4-(3-methyl-5-phenyl-[1,2,4]triazole-1-yl)-benzenesulfonamide], the “Inhibitory effects of cyclooxygenase (COX): COX-2” value (shortened to “Inhibitory effects … COX-2”) turned out to be 48.5 % inhibition at cyclooxygenase-2 (30 nM), 50.0 % inhibition on cyclooxygenase-2 (100 nM) and 81.4 % inhibition on cyclooxygenase-2 (300 nM). Also, the “Inhibitory effects of cyclooxygenase (COX): COX-1” value (from here on “Inhibitory effects … COX-1”) is 12.1 % inhibition on cyclooxygenase-1 (3 μM), 25.9 % inhibition at cyclooxygenase-1 (10 μM) and 53.1 % inhibition on cyclooxygenase-1 (30 μM).

Consider `Cc1nc(-c2ccc(F)cc2)n(-c2ccc(S(N)(=O)=O)cc2)n1` [Example 2, 4-[5-(4-fluoro-phenyl)-3-methyl-[1,2,4]triazole-1-yl]-benzenesulfonamide], for which the “Inhibitory effects … COX-2” value is 28.8 % inhibition at cyclooxygenase-2 (30 nM), 34.4 % inhibition on cyclooxygenase-2 (100 nM) and 45.7 % inhibition at cyclooxygenase-2 (300 nM). The results for the “Inhibitory effects … COX-1” value at cyclooxygenase-1 (3 μM), at cyclooxygenase-1 (10 μM) and on cyclooxygenase-1 (30 μM) were 36.9 % inhibition, 53.4 % inhibition and 67.8 % inhibition, respectively.

On to `Cc1nc(-c2ccc(Cl)cc2)n(-c2ccc(S(N)(=O)=O)cc2)n1` [Example 3, 4-[5-(4-chloro-phenyl)-3-methyl-[1,2,4]triazole-1-yl]-benzenesulfonamide], for which the “Inhibitory effects … COX-2” value at cyclooxygenase-2 (30 nM) is 40.0 % inhibition; at cyclooxygenase-2 (100 nM), 74.1 % inhibition; at cyclooxygenase-2 (300 nM), 82.9 % inhibition. Further, the “Inhibitory effects … COX-1” value is reported as 0.1 % inhibition on cyclooxygenase-1 (3 μM), 13.8 % inhibition at cyclooxygenase-1 (10 μM) and 29.7 % inhibition at cyclooxygenase-1 (30 μM).

On to `Cc1nc(-c2ccc(Br)cc2)n(-c2ccc(S(N)(=O)=O)cc2)n1` [Example 4, 4-[5-(4-bromo-phenyl)-3-methyl-[1,2,4]triazole-1-yl]-benzenesulfonamide], for which the “Inhibitory effects … COX-2” value at cyclooxygenase-2 (30 nM) is 64.2 % inhibition; on cyclooxygenase-2 (100 nM) it was 99.0 % inhibition; at cyclooxygenase-2 (300 nM), 99.8 % inhibition. Further, the “selectivity of cyclooxygenase-2 compared with the comparative substance (in words)” value (“selectivity” for short) at cyclooxygenase-2 is “hardly different”. For the same molecule, the “Inhibitory effects … COX-1” value on cyclooxygenase-1 (3 μM) is listed as 85.6 % inhibition; on cyclooxygenase-1 (10 μM), 87.7 % inhibition; at cyclooxygenase-1 (30 μM), 91.1 % inhibition.

On to `Cc1ccc(-c2nc(C)nn2-c2ccc(S(N)(=O)=O)cc2)cc1` [Example 5, 4-(3-methyl-5-p-toly-[1,2,4]triazole-1-yl)-benzenesulfonamide], for which the figures for the “Inhibitory effects … COX-2” value on cyclooxygenase-2 (30 nM), on cyclooxygenase-2 (100 nM) and on cyclooxygenase-2 (300 nM) were 45.3 % inhibition, 53.3 % inhibition and 75.2 % inhibition, respectively. Further, the “Inhibitory effects … COX-1” value at cyclooxygenase-1 (3 μM) was found to be 48.6 % inhibition; on cyclooxygenase-1 (10 μM), 61.1 % inhibition; at cyclooxygenase-1 (30 μM), 79.7 % inhibition.

For `COc1ccc(-c2nc(C)nn2-c2ccc(S(N)(=O)=O)cc2)cc1` [Example 6, 4-[5-(4-methoxy-phenyl)-3-mehtyl-[1,2,4]triazole-1-yl]-benzenesulfonamide], the “Inhibitory effects … COX-2” value on cyclooxygenase-2 (30 nM) is reported as 68.8 % inhibition; on cyclooxygenase-2 (100 nM), 99.2 % inhibition; on cyclooxygenase-2 (300 nM), 99.9 % inhibition. Further, the “selectivity” value on cyclooxygenase-2 was “hardly different”. Also, the “Inhibitory effects … COX-1” value at cyclooxygenase-1 (3 μM) is given as 78.6 % inhibition; on cyclooxygenase-1 (10 μM) it was 85.6 % inhibition; on cyclooxygenase-1 (30 μM) it was 94.5 % inhibition.

On to `Cc1nc(-c2cccc(F)c2)n(-c2ccc(S(N)(=O)=O)cc2)n1` [Example 7, 4-[5-(3-fluoro-phenyl)-3-methyl-[1,2,4]triazole-1-yl]-benzenesulfonamide], for which the “Inhibitory effects … COX-2” value turned out to be 54.3 % inhibition at cyclooxygenase-2 (30 nM), 55.0 % inhibition on cyclooxygenase-2 (100 nM) and 55.3 % inhibition on cyclooxygenase-2 (300 nM). In addition, the “Inhibitory effects … COX-1” value turned out to be 21.1 % inhibition on cyclooxygenase-1 (3 μM), 24.4 % inhibition at cyclooxygenase-1 (10 μM) and 28.1 % inhibition on cyclooxygenase-1 (30 μM).

In the case of `Cc1nc(-c2cccc(Cl)c2)n(-c2ccc(S(N)(=O)=O)cc2)n1` [Example 8, 4-[5-(3-chloro-phenyl)-3-methyl-[1,2,4]triazole-1-yl]-benzenesulfonamide], the “Inhibitory effects … COX-2” value on cyclooxygenase-2 (30 nM) came to 31.3 % inhibition; at cyclooxygenase-2 (100 nM) it was 52.6 % inhibition; at cyclooxygenase-2 (300 nM), 50.5 % inhibition. In addition, the “Inhibitory effects … COX-1” value at cyclooxygenase-1 (3 μM) amounted to 62.0 % inhibition; on cyclooxygenase-1 (10 μM), 75.1 % inhibition; on cyclooxygenase-1 (30 μM) it was 84.7 % inhibition.

With `Cc1nc(-c2cccc(Br)c2)n(-c2ccc(S(N)(=O)=O)cc2)n1` [Example 9, 4-[5-(3-bromo-phenyl)-3-methyl-[1,2,4]triazole-1-yl]-benzenesulfonamide], the “Inhibitory effects … COX-2” value on cyclooxygenase-2 (30 nM) came to 66.5 % inhibition; on cyclooxygenase-2 (100 nM), 89.2 % inhibition; at cyclooxygenase-2 (300 nM), 99.2 % inhibition. Also, at cyclooxygenase-2, the “selectivity” value is on record as “hardly different”. The results for the “Inhibitory effects … COX-1” value at cyclooxygenase-1 (3 μM), on cyclooxygenase-1 (10 μM) and on cyclooxygenase-1 (30 μM) were 78.7 % inhibition, 81.9 % inhibition and 89.5 % inhibition, respectively.

With `COc1cccc(-c2nc(C)nn2-c2ccc(S(N)(=O)=O)cc2)c1` [Example 10, 4-[5-(3-methoxy-phenyl)-3-methyl-[1,2,4]triazole-1-yl]-benzenesulfonamide], the entries for the “Inhibitory effects … COX-2” value at cyclooxygenase-2 (30 nM), on cyclooxygenase-2 (100 nM) and on cyclooxygenase-2 (300 nM) were 42.1 % inhibition, 54.2 % inhibition and 68.8 % inhibition, respectively. Moreover, the figures for the “Inhibitory effects … COX-1” value on cyclooxygenase-1 (3 μM), at cyclooxygenase-1 (10 μM) and on cyclooxygenase-1 (30 μM) were 38.8 % inhibition, 42.0 % inhibition and 45.6 % inhibition, respectively.

Turning to `COc1ccccc1-c1nc(C)nn1-c1ccc(S(N)(=O)=O)cc1` [Example 11, 4-[5-(2-methoxy-phenyl)-3-methyl-[1,2,4]triazole-1-yl]-benzenesulfonamide], the “Inhibitory effects … COX-2” value at cyclooxygenase-2 (30 nM) is given as 25.0 % inhibition; at cyclooxygenase-2 (100 nM), 25.2 % inhibition; on cyclooxygenase-2 (300 nM), 37.7 % inhibition. Besides, the “Inhibitory effects … COX-1” value at cyclooxygenase-1 (3 μM) amounted to 54.0 % inhibition; at cyclooxygenase-1 (10 μM), 61.3 % inhibition; at cyclooxygenase-1 (30 μM) it was 67.2 % inhibition.

As to `COc1ccc(-c2nc(C)nn2-c2ccc(S(N)(=O)=O)cc2)cc1OC` [Example 12, 4-[5-(3,4-dimethoxy-phenyl)-3-mehtyl-[1,2,4]triazole-1-yl]-benzenesulfonamide], the “Inhibitory effects … COX-2” value was found to be 30.3 % inhibition at cyclooxygenase-2 (30 nM), 55.8 % inhibition at cyclooxygenase-2 (100 nM) and 70.4 % inhibition at cyclooxygenase-2 (300 nM). Also, the entries for the “Inhibitory effects … COX-1” value on cyclooxygenase-1 (3 μM), at cyclooxygenase-1 (10 μM) and at cyclooxygenase-1 (30 μM) were 27.3 % inhibition, 34.3 % inhibition and 37.7 % inhibition, respectively.
